How the values were obtained:
[1] = target: T1, Human heart chymase (Homo sapiens, UniProt P23946); test: Measurement of chymase inhibitory activity; assay type: biochemical; details: substrate Suc-Ala-Ala-Pro-Phe-MCA, 30° C., pH 7.5
T1 construct: Human heart chymase was purified according to the method of Urata et al; from tissue; host or cells: human heart
T1 sequence (P23946 22-247): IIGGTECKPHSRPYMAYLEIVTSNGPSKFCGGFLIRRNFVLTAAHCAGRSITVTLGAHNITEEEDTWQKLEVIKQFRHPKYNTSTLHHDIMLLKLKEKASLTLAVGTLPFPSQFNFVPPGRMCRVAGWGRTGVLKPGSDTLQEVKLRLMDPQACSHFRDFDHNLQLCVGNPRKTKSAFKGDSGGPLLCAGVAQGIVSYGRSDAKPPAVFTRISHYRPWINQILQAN
Experimental: Human heart chymase was purified according to the method of Urata et al. (J. Biol. Chem., 1990, 265, 22348). The inhibitory activity of the compound of the present invention was determined as follows. Purified enzyme was diluted with 0.1M tris-HCl buffer (pH=7.5), 1M sodium chloride, and 0.01% TritonX-100 to obtain an enzyme solution having appropriate concentrations. Suc-Ala-Ala-Pro-Phe-MCA (Peptide Institute Inc.) was dissolved in 10 mM dimethyl sulfoxide (hereinafter referred to as DMSO) and diluted 20-fold with 0.1M Tris-HCl buffer (pH 7.5) containing 1M sodium chloride and 0.01% TritonX-100 to an appropriate concentration to prepare substrate solution.
5 μl of the test sample in DMSO was added to 75 μl of the enzyme solution and preincubated at 30° C. for 10 minutes. Then, 20 μl of the substrate solution was added to the test sample-enzyme mixture, and incubated at 30° C. Ten minutes later, 50 μl of 30% acetic acid was added to stop the enzymatic reaction, and the amount of AMC formed was determined using a fluorophotometer. At the same time, 5 μl of DMSO in stead of the test sample was added and reacted simultaneously as a control. The inhibitory activity to human chymase was calculated based on the value of the control, and then the inhibition percentage and the 50% inhibition concentration (IC50) were determined.

[2] = tested on: Nippostrongylus brasiliensis (Nb); test: Number of eggs in feces in Nb infected mice; assay type: in vivo
Experimental: (§1) Male BALB/c mice (7-weeks old) were transcutaneously inflected with 750 parasitic worms of Nippostrongylus brasiliensis (Nb) (third stage larvae) in accordance with an already reported method (Int. Arch. Allergy Immunol. 117, Suppl. 1, 2, 1998). After two weeks, the number of eosinophils in the peripheral blood and the total number of leukocytes in the peripheral blood were measured. Further, at day 7 and day 10, the number of eggs in the feces was measured. The chymase inhibitor (Compound 18) was dissolved in saline and injected intraperitoneally in 0.2 ml amounts once a day continuously from the day before infection until the end of the test. Note that the control group was administered only saline. The number of cells in the peripheral blood was measured by sampling peripheral blood from the eye cavity. The eosinophils were stained with a Hinkelman's solution, then counted under a microscope. Further, the total number of leukocytes was measured under a microscope after staining with by a Turk's solution. The number of eggs in the feces was determined by obtaining individual feces of the mice, measuring their weight, then dissolving them in 1 ml of 10% formalin, counting the number of eggs in the feces solution under a microscope, then expressing the result as the number of eggs per gram of feces.

[3] = tested on: eosinophils in the peripheral blood of Nb infected mice; test: Increase in eosinophils of mice infected with Nippostrongylus brasiliensis (Nb); assay type: in vivo
Experimental: as §1

[4] = 50 mg/kg, intraperitoneal once a day, BALB/c mice, 2 weeks after Nb infection

Compound	IC50 [1] [nM]	No. of Nb eggs in gram of feces, Day 7 ([2]; 50 mg/kg, intraperitoneal once a day, day 7 after Nb infection)	No. of Nb eggs in gram of feces, Day 10 ([2]; 50 mg/kg, intraperitoneal once a day, day 10 after Nb infection)	Difference in number of eggs of Nb versus group not administered ([2]; day 7 or day 10 after Nb infection)	Number of eosinophils in peripheral blood, 2 weeks after infection ([3]; 2 mg/kg, intraperitoneal once a day, BALB/c mice, 2 weeks after Nb infection) [no./mm^3]	Number of eosinophils in peripheral blood, before infection ([3]; 2 mg/kg, intraperitoneal once a day, BALB/c mice) [no./mm^3]	Number of eosinophils in peripheral blood, 2 weeks after infection ([3]; 10 mg/kg, intraperitoneal once a day, BALB/c mice, 2 weeks after Nb infection) [no./mm^3]	Number of eosinophils in peripheral blood, before infection ([3]; 10 mg/kg, intraperitoneal once a day, BALB/c mice) [no./mm^3]	Number of eosinophils in peripheral blood, 2 weeks after infection [3, 4] [no./mm^3]	Total no. of leukocytes in peripheral blood 2 weeks after infection [3, 4] [no./mm^3]	Number of eosinophils in peripheral blood, before infection ([3]; 50 mg/kg, intraperitoneal once a day, BALB/c mice) [no./mm^3]	Effect on Nb-induced increase in the number of eosinophils ([3]; 50 mg/kg/day, Dunnett's test, 2 weeks after infection)	Effect on the total number of leukocytes in the peripheral blood ([3]; Nb infected mice, 2 weeks after infection)
CC(C(=O)O)C(=O)Nc1cccc(S(=O)(=O)n2c(=O)[nH]c3cc(Cl)ccc3c2=O)c1 (stereo not shown) [Compound 13, 2-{3-[(7-chloro-2,4(1H,3H)-quinazolinedion-3-yl)sulfonyl]phenylaminocarbonyl}propionic acid]	300												
Nc1cc(S(=O)(=O)n2c(=O)[nH]c3cc(Cl)ccc3c2=O)ccc1C(=O)[O-].[Na+] [Compound 18, 4-[(7-chloro-2,4(1H,3H)-quinazolinedion-3-yl)sulfonyl]anthranilic acid monosodium salt]		30541 ± 12501 eggs per gram of feces	558 ± 1248 eggs per gram of feces	almost no difference	1036 ± 240	30 ± 12	818 ± 155	36 ± 11	360 ± 66	5820 ± 460	32 ± 16	significantly suppressed	little effect

From patent US6677344B2, “Chymase inhibitor for the treatment of eosinophilia” (Daiichi Suntory Pharma Co., Ltd., priority 2000, dated 2004)
